Reference: paper PMC6627331, “Identification of Small Molecule Inhibitors of Staphylococcus aureus RnpA” (Antibiotics, 2019)
Converted amounts (≈) assume the structure as drawn. Where two headings read alike, the source gives them in different places.

How the values were obtained:
[1] = JC2 stability (degradation test) in Mueller Hinton broth by HPLC; type: physicochemical; conditions: 37 °C, read-out: half-life in Mueller Hinton media (MH t1/2) (converted)
Method: Degradation test: Blank sample was prepared with 20 µL Mueller Hinton broth (BD biosciences, US) diluted in 180 µL of 2 % DMSO in 1:1 (v/v) acetonitrile : water solution, and directly submitted to HPLC for evaluation. A 5 mM JC2 stock solution was prepared by diluting the 25 mM stock solution with DMSO. 4 µL of 5 mM […] solution was added into 196 µL of MH, and incubated at 37 °C for the whole course of evaluation. 20 µL of each incubated sample was taken at 0, 0.5, 1, 2, 4, 8, 16 hr, and were prepared in the same manner as the blank sample before submitting to HPLC.
Chromatography was performed on an Agilent 1200 series HPLC system that equipped with a vacuum degasser, a quaternary pump, a diode array and multiple wavelength detector SL, and a standard and preparative autosampler (Agilent Technologies, US). A Hyspersil GOLD^TM C-18 4.6 x 250 mm, 3 µm column was used for separation. A gradient elution method was used as the mobile phase by mixing solvent A (water, 0.1% formic Acid) and solvent B (acetonitrile, 0.1% formic acid). The time program for gradient elution is shown in Table A. The flow rate was set at 1.0 ml/min, and 20µl of sample was injected each time. The detector monitored absorption at 254, 215, 280 nm.
Chemstation Offline (Agilent Technologies, US) was used to analyze the data. […]

S. aureus UAMS-1 = experiment: Fractional inhibitory concentration (FIC) testing; type: cell-based, Staphylococcus aureus; conditions: checkerboard, 16 h
Method: Fractional inhibitory concentration (FIC) testing was performed to determine the combined effects of the indicated antibiotic and the putative RnpA inhibitor following the procedures of Odds and colleagues. To do so, individual wells of a 96-well microtiter plate were inoculated with 10^4 colony forming units (CFU) of S. aureus UAMS-1 in MHB. Each row of the plate contained two-fold increasing concentrations of the indicated antibiotic (0, 0.03, 0.06, 0.125, 0.25, 0.5, 1, 2, or 4× MIC), whereas each column contained increasing concentrations of the putative RnpA inhibitor compound (0, 0.03, 0.06, 0.125, 0.25, 0.5, 1, 2, or 4× MIC). Plates were incubated at 37 °C for 16 h and growth was determined by the unaided eye. The FIC was defined using the following formula: FIC = (MIC of Drug A in Combination/MIC of Drug A Alone) + (MIC of Drug B in Combination/MIC of Drug B Alone). A synergistic interaction was defined as an FIC value ≤ 0.5, an additive interaction as 0.5 < FIC < 1, no interaction as 1 ≤ FIC < 4, and an antagonistic interaction as FIC ≥ 4.

S. aureus BAA-1708 = experiment: MIC against clinical strain BAA-1708; type: cell-based, Staphylococcus aureus; conditions: S. aureus clinical strain BAA-1708
[2] = system: all cellular mRNA species of S. aureus UAMS-1; experiment: Global cellular mRNA turnover (Affymetrix GeneChip); type: cell-based, Staphylococcus aureus; conditions: 0.5× MIC; mock (DMSO) 84.8%
Method: S. aureus mRNA half-life determinations were performed as previously described. […] Rifampin (Sigma-Aldrich) was added to the culture at a final concentration of 200 μg·mL^−1 to inhibit de novo transcript synthesis. Half of the culture was immediately removed and combined with an equal volume of ice cold acetone:ethanol (1:1 v/v). The remaining culture was returned to the shaking 37 °C incubator for an additional 5 min and then subsequently combined with an equal volume of ice cold acetone:ethanol (1:1 v/v) and stored at −80 °C until processing, as described below.
Briefly, following the manufacturer’s instructions for prokaryotic arrays, reverse transcription was carried out on 10 µg of total bacterial RNA and control eukaryotic poly(A) RNA (Affymetrix). […] Transcript signal intensity values were read using the Affymetrix GeneChip® Scanner, and intensity values for each ORF and intergenic region were averaged among the biological replicates (n ≥ 2). Signals were normalized to the control poly(A) cDNA intensity values using GeneSpring 7.2 software (Agilent Technologies, Redwood City, CA, USA) and the number of transcripts with a decrease in transcript signal of >2-fold were determined.

S. aureus RnpA = target: T1, S. aureus RnpA (Staphylococcus aureus, UniProt P0A0H5); experiment: RnpA-mediated in vitro spa mRNA degradation assay; type: biochemical; conditions: read-out: Degradation IC50
T1 construct: hexahistidine (His6) (N); made in house; host or cells: E. coli BL21 (DE3), plasmid pEXP5-nt
T1 sequence (P0A0H5 1-117): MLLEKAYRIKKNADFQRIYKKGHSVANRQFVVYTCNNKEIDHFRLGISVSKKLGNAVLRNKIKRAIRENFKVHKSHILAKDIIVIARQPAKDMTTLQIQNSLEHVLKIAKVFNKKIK
Method: RnpA-mediated RNA degradation assays were performed as previously described. Briefly, 1 pmol of spa mRNA was incubated with 5 pmol RnpA at 37 °C for 30 min in reaction buffer (50 mM Tris-HCl pH 8.0, 2 mM NaCl, 2 mM MgCl2) in the absence or presence of the indicated compound (≤500 µM). The inhibitory effects of the test compounds were calculated using Biorad ImageLab densitometry software to measure the signal intensity of the spa band in the negative control (spa alone), positive control (RnpA + spa + DMSO), and experimental samples (RnpA + spa + test compound) separated on a 1.2% formaldehyde-agarose gel. Background signal from the positive control sample sometimes resulted due to incomplete degradation of transcripts. Thus, the signal intensity of the positive control was taken into account when calculating the percent inhibition. The raw signals from the positive (+RnpA) and negative (-RnpA) controls were converted into percentage, by normalizing the positive control (+RnpA) signal to 0% RnpA inhibition and the negative control (-RnpA) to 100% RnpA inhibition. Similarly, the raw signals from the test compounds were reported as percent RnpA inhibition using the following equation: [(experimental−positive control)/(negative control−positive control)] × 100. […] To assess IC50, % RnpA degradation inhibition was plotted against compound concentration; a linear best fit equation was generated and utilized to calculate the IC50.

CC1CCCCN1C(=O)Nc1cc(Cl)cc(Cl)c1 (stereo not drawn) [JC2]
half-life at 100 µM [1]: ~2 h | FIC in combination with ampicillin (S. aureus UAMS-1): 2 | FIC in combination with erythromycin (S. aureus UAMS-1): 2 | FIC in combination with mupirocin (S. aureus UAMS-1): 0.875 | FIC in combination with trimethoprim (S. aureus UAMS-1): 2 | MIC (S. aureus BAA-1708): 1 µg/mL (≈ 3.48 µM) | MIC (S. aureus BAA-1708; Staphylococcus aureus, BAA1708, read-out: MIC): 1 µg/mL (≈ 3.48 µM) | transcript species with a half-life of ≤5 min [2]: 51.6% | IC50 (S. aureus RnpA): 180 µM
